What was measured:
Ewing sarcoma PDX = Ewing sarcoma PDX model (NCH-EWS-2); type: in vivo, NSG mouse; conditions: 3 mg/kg IP every other day, four weeks, vs vehicle
Excerpt: To generate PDX models, the Nationwide Children's Hospital Institutional Review Board approved the Human Subjects Protocol for the acquisition of surgically-removed tumor specimens from patients and informed patient consents were obtained. Shortly after resection, fresh tumor tissues with their histological types confirmed by a specialized pathologist were placed in Dulbecco's-modified Eagle (DME) medium (Invitrogen) and brought to the research laboratory. A piece of tumor fragment was implanted subcutaneously on the dorsal right flank area in an eight-to-ten week-old immunodeficient mouse under anesthesia. Tumors were allowed to grow until established, at which time the established PDX tumors were repeatedly passed from one animal to the next or cryopreserved. For Roc treatment, actively-growing PDXs for a Ewing sarcoma (NCH-EWS-2), an osteosarcoma (NCH—OS-7), and an alveolar rhabdomyosarcoma (NCH-ARMS-2) were excised and cut into 5-mm pieces. Each tumor piece was re-implanted into an NSG mouse and tumor growth was monitored. Once noted, the tumor sizes in the axial plane at its greatest dimension (L) and the orthogonal short dimension (S) were measured twice weekly using a Fowler Ultra-Cal Electronic Caliper. Approximated tumor volumes were calculated using the formula V=(L×S^2)/2. […]

[1] = test system: TC32 Ewing sarcoma, 143B osteosarcoma, and RD rhabdomyosarcoma cells; assay: Western blots of treated sarcoma cells; type: cell-based
Description: FIGS. 7A-7C provide images showing DDR and Roc reduce multiple signaling proteins important for the growth and survival of sarcoma cells. Lysates prepared from TC32 Ewing sarcoma (A), 143B osteosarcoma (B), and RD rhabdomyosarcoma (C) cells were treated 1 and 2 days with the indicated concentrations of DDR or Roc and analyzed by Western blotting for the expression of various oncogenic driver proteins. GAPDH was used as a loading control.
Subconfluent cells were treated with the indicated doses of Roc or DDR for 24-72 hours and then harvested in cell lysis buffer (Cell Signaling Technology) containing 1 mM phenylmethylsufonylfluoride and protease inhibitor cocktail (Sigma-Aldrich). The protein content in cleared lysates was quantitated using the microBCA assay (ThermoFisher). Equal amounts of protein were run in sodium dodecyl sulfate-polyacrylamide gels and electrotransferred onto Immobilon-FL PVDF membranes (Millipore). The antibodies used were directed against: MDR1/ABCB1 (#13978), insulin-like growth factor-1 receptor β subunit (IGF-1Rβ; #9750), AKT (#9272), ERK1/2 (#4695), glyceraldehyde-3-phosphate dehydrogenase (GAPDH; #5174), caspase-3 (#9662), caspase-7 (#9492), cleaved caspase-7 (#9491), poly(ADP-ribose) polymerase (PARP; #9532), cleaved PARP (#5625), and phospho-histone H2A.X (pH2A.X[Ser′^39]; #9718; all from Cell Signaling Technology), NKX2.2 (sc-514161), LSD1 (sc-136174), and survivin (sc-17779; Santa Cruz Biotechnology), and FLI1 (ab15289) and cleaved caspase-3 (CC3; ab32042; Abeam). Protein bands were detected using IRDye® infrared fluorescent dye-labeled secondary antibodies and scanning on an Odyssey CLx imaging system (LI-COR Biosciences) using the appropriate fluorescent channel at a resolution of 84 μm.
To further examine the molecular mechanisms underlying the antiproliferative effects of rocaglamides, the inventors treated TC32 Ewing sarcoma, 143B osteosarcoma, and RD rhabdomyosarcoma cells with 1- or 2-IC50 dose of DDR or rocaglamide for 1-2 days followed by Western blotting for several known drivers of cell survival and proliferation. […] They also observed reduction of the IGF-1Rβ levels in rocaglamide-treated MPNST cells. In addition, Roc and DDR decreased the levels of AKT, ERKs, cyclin D1 and survivin in treated TC32, 143B, and RD cells (FIG. 7). Intriguingly, the oncogenic fusion protein EWS-FLI1, which acts as an aberrant transcription factor in Ewing sarcoma, was not affected in Roc- and DDR-treated TC32 Ewing sarcoma cells (FIG. 7A). […] However, the expression of lysine demethylase 1 (LSD1), which modulates EWS-FLI1 transcriptional activity (Sankar et al., Oncogene, 32:5089-5100 (2013)), and NKX2.2, an EWS-FL11-regulated gene necessary for oncogenic transformation (Smith et al., Cancer Cell, 9:405-416 (2006)), were diminished by these rocaglamides in TC32 cells (FIG. 7A).

[2] = test system: ST8814-Luc MPNST xenografts; assay: Orthotopic ST8814-Luc MPNST cell line-derived xenograft, bioluminescence imaging and IHC; type: in vivo, NSG mice; conditions: 4 weeks
Description: All animal work was performed according to the protocols approved by the Institutional Animal Care and Use Committee at Nationwide Children's Hospital. For animal dosing, Roc was formulated in 30% hydroxypropyl-β-cyclodextrin (HPβCD; CTD, Inc.). To generate the orthotopic MPNST CDX model, ST8814-Luc cells were injected into the sciatic nerves of NSG mice (NOD.Cg-Prkdc^scid Il2rg^imlWjl/SzJ; The Jackson Laboratory), followed by bioluminescence imaging (BLI) to monitor tumor growth. Burns and Chang, Methods Mol Biol., 1427:59-72 (2016). Mice bearing established ST8814-Luc tumors, as defined by increasing bioluminescence signals over at least two time points, were randomized into three groups (n=10 mice) and treated with the predetermined maximum tolerated dose (MTD) of Roc at 4 mg/kg by IP or 1.2 mg/kg by oral gavage, or the vehicle HPβCD every other day. Tumor growth was measured weekly by BLI. Following 4 weeks of treatment, tumors were harvested for histological analysis.
Sections from Roc or vehicle-treated MPNST tumors were prepared and stained with hematoxylin and eosin (H&E) or immunostained for p-histone H3(Ser^10) (pH3; ab32107, Abeam) or CC3 (#9664, Cell Signaling) as previously described. Burns et al., Cancer Res., 73:792-803 (2013).
To evaluate the in vivo activity of Roc, the inventors treated NSG mice bearing luciferase-expressing ST8814-Luc tumors implanted in the sciatic nerve with Roc at the predetermined MTD (4 mg/kg by IP or 1.2 mg/kg oral gavage), or IPβCD as the vehicle control every other day.

## COc1ccc([C@@]23Oc4cc(OC)cc(OC)c4[C@]2(O)[C@H](O)[C@H](C(=O)N(C)C)[C@H]3c2ccccc2)cc1 [Roc, rocaglamide]
Ewing sarcoma PDX
  tumor growth inhibition: ~90%
[1]; 1- or 2-IC50 dose, 1-2 days, all three sarcoma cell lines
  levels of the β subunit of IGF-1R: reliably reduced
[1]; TC32, 143B, and RD cells, 1- or 2-IC50 dose, 1-2 days
  levels of AKT, ERKs, cyclin D1 and survivin: decreased
[1]; TC32 Ewing sarcoma cells
  EWS-FLI1 fusion protein level: not affected
[1]; TC32 cells
  expression of LSD1 and NKX2.2: diminished
[2]; 1.2 mg/kg PO (oral gavage) every other day, vehicle ~17,000-fold
  increase of tumor bioluminescence over four weeks: ~470 fold
[2]; 1.2 mg/kg oral gavage every other day
  reduction in tumor bioluminescence compared to controls: > 95%
[2]; 4 mg/kg IP every other day
  reduction in tumor luminescence compared to controls: > 99%
[2]; IP- or orally-delivered, IHC
  phospho-histone H3 labeling in tumors vs vehicle: much higher prevalence
[2]; Roc-treated tumors, IHC
  cleaved caspase-3 positive cells in tumors: increased numbers
